Test results published in US20150224202A1, “FORMULATIONS AND USES FOR MICROPARTICLE DELIVERY OF ZINC PROTOPORPHYRINS” (priority 2014, published 2015).

Columns and labels:
[1] = tested on: newborn rhesus monkeys; test: Hemolytic jaundice model, newborn rhesus monkeys treated with heat-damaged erythrocytes; format: in vivo, rhesus monkey
From the text: However, ZnPP has been troublesome to maintain in solution and is not orally absorbed, requiring parenteral administration.

[2] = tested on: 3-day-old mouse pups; test: Effect of light exposure on metalloporphyrin-treated newborn mice (chemical toxicity and phototoxicity); conditions: for chemical toxicity / phototoxicity, summary: 3.75 to 30.0 μmol/kg BW IP; for LD50 (50% lethal dose), exposed to light: fluorescent light (2 cool white, 1 blue tube) 3 hours
Procedure: FIG. 2 includes three panels ((A), (B), and (C)), showing the experimental setup for phototoxicity studies. 3-day-old pups (magnified in panel (A)) were given vehicle or Mp IP at doses ranging from 3.75 to 30 μmol/kg body weight (BW) and then exposed for 3 hours to fluorescent light consisting of 2 cool white and 1 blue tubes (as shown in panel (B)) emitting an irradiance of 35.0±1.0 μW/cm^2/nm as measured by a BiliBlanket II Meter (as depicted in panel (C)).
Effect of light exposure on metalloporphyrin-treated newborn mice. […] Pups were either kept in the dark (controls) or exposed to fluorescent light composed of two cool white tubes (F20T12cW) and one blue (TL20W/52) tube for 3 hours (FIG. 2).

[3] = tested on: heme oxygenase (HO); test: HO activity inhibition in ZnBG-treated 3-day-old pups (FIG. 3); format: in vivo, mouse
[4] = after exposure to fluorescent light

Compound | tissue targeting of HO inhibition ([1]; 40 μmol/kg BW SC) | time to reduce carboxyhemoglobin and total bilirubin levels to baseline levels ([1]; 40 μmol/kg BW subcutaneously (SC)) | chemical toxicity / phototoxicity, summary [2] | LD50 (50% lethal dose), exposed to light ([2]; IP, 3-day-old mouse pups) | LD50 (50% lethal dose), kept in the dark ([2]; IP, 3-day-old mouse pups, kept in the dark) | inhibited HO activity ([3]; 3.75 μmol ZnBG/kg BW) | doses retaining maximal HO inhibitory potency without photosensitizing effects ([3]; FIG. 3) | lethality under blue LED light ([2]; 30 μmol/kg BW, blue light-emitting diode (LED) light) | chemical toxicity, kept in the dark ([2]; 30 μmol/kg, kept in the dark) | doses at which gross histologic skin changes developed ([2]; 6 days after light exposure) | aspartate aminotransaminase (AST) levels [2, 4] | body weight after exposure to light [2, 4] | creatine kinase (CK-MB) levels [2, 4] | liver antioxidant capacities [2, 4]
C=CC1=C(C)c2cc3[n-]c(cc4nc(cc5[n-]c(cc1n2)c(C)c5C=C)C(C)=C4CCC(=O)O)c(CCC(=O)O)c3C.[Zn+2] [ZnPP, Zinc protoporphyrin] | targeted to the liver and spleen, without affecting the kidney or brain | ≤ 24 h | – | – | – | – | – | – | – | – | – | – | – | –
chromium mesoporphyrin [CrMP] | – | – | has a chemical toxicity, but no phototoxicity | 23.0 µmol/kg | 21.5 µmol/kg | – | – | – | – | – | – | – | – | –
zinc bis glycol porphyrin [ZnBG] | – | – | has no chemical toxicity, but a phototoxicity that is dependent on the light source | 19.5 µmol/kg | – | up to 75% | < 3.75 μmol/kg BW | no lethality was observed | did not show any chemical toxicity | > 7.5 μmol/kg BW | increases | significant weight loss | increases | decreases
